Experimental data from patent publication US8999930B2, “Soluble hydrophobic core carrier compositions for delivery of therapeutic agents, methods of making and using the same” (PharmaIN Corporation, priority 2008, dated 2015).
Where two headings read alike, the source gives them in different places. Where a SMILES comes first, the peptide text is derived from it. Bridges are numbered along the chain shown (N, C = ends).

Test: Binding of load molecules to 20PLPEG555C18 carrier (100 kDa filtration, free load by HPLC, Scatchard plot)
Settings: for binding affinity to carrier, in words: strong = Kd less than 100 uM, carrier 20 kDa polylysine, 55% 5 kDa MPEGsuccinate, remainder stearic acid
[1] = Kd to the 20PLPRG555C18, Table 4, read-out: Dissociation Constant (Kd)

Protocol: Load molecules of various concentrations were added to the tubes so that the corresponding weight of load molecules will be between 2 to 30% of the weight of the carrier. To each tube, 25 ul of 10× Phosphate buffered saline was added and the total volume of the solution was made up to 250 ul. The solutions were incubated for 2 hours, followed by filtration through a 100 kDa molecular weight cut-off filter made up of regenerated cellulose (Microcon Ultracell YM-100; Millipore, Bedford, Mass.). The free unbound load molecules in the filtrate were analyzed by reverse phase HPLC using the conditions described above to generate Table 3. The total amount of load molecule loaded or the control is represented by the filtrate of the solution without the carrier. The amount of load molecules bound to the carrier is represented by the difference in the amount of load molecules between the filtrate without the carrier and the filtrate with the carrier. Prior to this analysis, the background filter binding was determined and accounted for whenever significant filter binding was found.

Compound	Kd [1]	Kd (Ten mg/ml (30 uM) of Carrier, read-out: Kd (Scatchard plot))	binding affinity to carrier, in words	Kd (Ten mg/ml (30 uM) of Carrier loaded with various concentration of doxorubicin, read-out: apparent Kd (Scatchard plot))	binding affinity to carrier, in words (listed as VIP)	Kd (33 mg/ml (10 uM) of Carrier, read-out: Kd (Scatchard plot))
Islet Amyloid Polypeptide: Islet Amyloid Polypeptide (IAPP or Amylin; 3.6 kDa), load molecule (KCNTATCATQRLANFLVHSSNNFGAILSSTNVGSNTY; Islet amyloid polypeptide; UniProt P10997 34-70, looked up)	< 900 µM	0.9 µM	binds IAPP with strong affinity			
COc1cccc2c1C(=O)c1c(O)c3c(c(O)c1C2=O)C[C@@](O)(C(=O)CO)C[C@@H]3O[C@H]1C[C@H](N)[C@H](O)[C@H](C)O1 [Doxorubicin, reference compound]	> 100 µM		did not bind with strong affinity	315 µM		
Glucagon Like Peptide 2: Glucagon Like Peptide 2 (GLP-2; 3 kDa), load molecule	< 0.5 µM					
NCCCC[C@H](NC(=O)[C@@H]1CCCN1C(=O)[C@@H]1CSSC[C@H](NC(=O)CNC(=O)CNC(=O)CN)C(=O)N[C@@H](Cc2ccc(O)cc2)C(=O)N[C@@H](Cc2ccccc2)C(=O)N[C@@H](CCC(N)=O)C(=O)N[C@@H](CC(N)=O)C(=O)N1)C(=O)NCC(N)=O [Terlipressin, reference compound] (H-GGGCYFQNCPKG-NH2; disulfide 4-9)	> 100 µM		does not bind Terlipressin with strong affinity			
Human Growth Hormone: recombinant human growth hormone (26 kDa), load molecule	> 100 µM		does not bind hGH with strong affinity			
Vasoactive Intestinal Peptide: Vasoactive Intestinal Peptide (VIP), load molecule			high affinity		binds VIP with strong affinity	
Leptin: Leptin (16 kDa), load molecule	< 0.8 µM		binds Leptin with strong affinity			0.7 µM
